Where “and” joins values, the source holds several entries; their conditions need not be identical. Equal entries are not always repeated.
What was measured:
Assay type in all cases: cell-based, human
[1] = test system: Ls174T into which siRNA had been introduced; assay: Sensitivity to oxaliplatin after introduction of siRNA, MTS assay; settings: for sensitivity to oxaliplatin compared to the case where the control siRNA had been introduced: 150 pmol siRNA per well
Description: (§1) The aforementioned nine human colorectal cancer cell lines were respectively inoculated onto a 96 well plate at a density of 1,500 cells/well, and after 24 hours, oxaliplatin was added thereto. The cell survival rate after 48 hours of drug exposure was evaluated by the MTS assay (CellTiter96™ AQueous One Solution Cell Proliferation Assay, Promega), and the IC50 values were determined from the absorbance values. Regarding the drug exposure conditions, eleven conditions such as Control (0 μM), 0.001 μM, 0.01 μM, 0.1 μM, 0.3 μM, 1 μM, 3 μM, 10 μM, 30 μM, 100 μM, and 1,000 μM were used. The evaluation of sensitivity was performed three times with cells of different passage numbers, by measuring three samples each for the respective cell lines, drug exposure time, and drug exposure conditions in a single time test. An analysis was carried out based on the survival rate calculated from the results of the MTS assay.
(§2) Among the nine kinds of colorectal cancer cell lines described in Test Example 1, Ls174T was used as an oxaliplatin-high-sensitivity cell line, HCT116 was used as a moderate-sensitivity cell line, and HT29 and DLD-1 were used as low-sensitivity cell lines.
(§3) Each of the human colorectal cancer cell lines was inoculated into a 6-well plate at a density of 1×10^5 cells/well, and after 24 hours, the medium was replaced with serum-free DMEM medium (Wako, 044-29765). A solution obtained by dissolving 150 pmol per well of each of the siRNAs indicated in Table 8 in 250 μL of Opti MEM (GIBCO, No. 319985) was mixed with a solution obtained by mixing 4.5 μL of Lipofectamin RNAiMAX Reagent (Invitrogen, No. 13778-150) and 250 μL of Opti MEM (GIBCO, No. 319985). The resultant mixture was incubated for 10 to 20 minutes. After incubation, 500 μL each of the mixture was added to each well of the 6-well plate on which the human colorectal cancer cell lines were cultured, and the medium in each well was replaced with a serum-added DMEM medium (Wako, 044-29765) 4 to 6 hours after the addition. The cells were collected 24 hours after the addition of siRNA.
(§4) Regarding the control siRNA, siRNA of No. 4390843 of Life Technologies, Inc. was used.
(§5) Measurement of the sensitivity to oxaliplatin (measurement of IC50 values) of the human colorectal cancer cell lines into which siRNA had been introduced, was performed by the method described in Test Example 1(1)(c).

[2] = test system: DLD-1 into which siRNA had been introduced; assay: as above
Description: as §1, §2, §3, §4, §5

[3] = test system: HCT116 into which siRNA had been introduced; assay: as above; settings: for sensitivity to oxaliplatin compared to the case where the control siRNA had been introduced: HCT116, 150 pmol siRNA per well
Description: as §1, §2, §3, §4, §5

[4] = test system: HT29 into which siRNA had been introduced; assay: as above; settings: for sensitivity to oxaliplatin compared to the case where the control siRNA had been introduced: HT29, 150 pmol siRNA per well
Description: as §1, §2, §3, §4, §5

HCT116 = assay: Sensitivity to oxaliplatin, MTS assay; settings: HCT116, 48 hours of drug exposure, cell survival rate by MTS assay
Description: (§6) Nine human colorectal cancer cell lines (SW480, Ls174T, Lovo, SW620, HCT116, HCT15, HT29, DLD-1, and WiDr) were obtained from the following sources (Table 1).
(§7) Culture was carried out under the conditions of 0100 mm/Tissue Culture Dish (IWAKI), culture medium (D-MEM, 2 mM Glutamine, 10% Fetal Bovine Serum), 37° C., and 5% CO2.
as §1

HT29 = assay: Sensitivity to oxaliplatin, MTS assay; settings: HT29, 48 hours of drug exposure, cell survival rate by MTS assay
Description: as §6, §7, §1

Ls174T = assay: Sensitivity to oxaliplatin, MTS assay; settings: 48 hours of drug exposure, cell survival rate by MTS assay
Description: as §6, §7, §1

SW620 = assay: Sensitivity to oxaliplatin, MTS assay; settings: SW620, 48 hours of drug exposure, cell survival rate by MTS assay
Description: as §6, §7, §1

HCT15 = assay: Sensitivity to oxaliplatin, MTS assay; settings: HCT15, 48 hours of drug exposure, cell survival rate by MTS assay
Description: as §6, §7, §1

Lovo = assay: Sensitivity to oxaliplatin, MTS assay; settings: 48 hours of drug exposure, cell survival rate by MTS assay
Description: as §6, §7, §1

DLD-1 = assay: Sensitivity to oxaliplatin, MTS assay; settings: DLD-1, 48 hours of drug exposure, cell survival rate by MTS assay
Description: as §6, §7, §1

WiDr = assay: Sensitivity to oxaliplatin, MTS assay; settings: 48 hours of drug exposure, cell survival rate by MTS assay
Description: as §6, §7, §1

SW480 = assay: Sensitivity to oxaliplatin, MTS assay; settings: SW480, 48 hours of drug exposure, cell survival rate by MTS assay
Description: as §6, §7, §1

O=C1[O][Pt]2([NH][C@@H]3CCCC[C@H]3[NH]2)[O]C1=O [oxaliplatin, (SP-4-2)-[(1R,2R)-cyclohexane-1,2-diamine-κN, κN′] [ethanedio ato(2-)-κO^1, κO^2]platinum]
IC50 ([1]; Control siRNA introduced): 0.86 µM and 0.68 µM | IC50 ([1]; IPYR siRNA introduced): 0.39 µM | IC50 ([1]; PHB siRNA introduced): 11.9 µM | IC50 ([1]; TALDO siRNA introduced): 0.43 µM | IC50 ([2]; DLD-1, Control siRNA introduced): 14.7 µM | IC50 ([2]; DLD-1, PHB siRNA introduced): 52.3 µM | IC50 ([3]; HCT116, ANXA5 siRNA introduced): 0.76 µM | IC50 ([3]; HCT116, C1QBP siRNA introduced): 2.18 µM | IC50 ([3]; HCT116, Control siRNA introduced): 1.72 µM and 1.39 µM and 1.53 µM and 1.34 µM | IC50 ([3]; HCT116, PHB siRNA introduced): 21.5 µM | IC50 ([3]; HCT116, TALDO siRNA introduced): 0.73 µM | IC50 ([4]; HT29, ANXA5 siRNA introduced): 5.35 µM | IC50 ([4]; HT29, Control siRNA introduced): 16.1 µM | IC50 ([4]; HT29, PHB siRNA introduced): 41.9 µM | IC50 ([4]; HT29, TALDO siRNA introduced): 2.77 µM | IC50 (HCT116): 1.15 ± 0.34 µM | IC50 (HT29): 7.99 ± 2.66 µM | IC50 (Ls174T): 0.61 ± 0.11 µM | IC50 (SW620): 1.14 ± 0.74 µM | IC50 (HCT15): 1.45 ± 0.44 µM | IC50 (Lovo): 0.79 ± 0.18 µM | IC50 (DLD-1): 13.9 ± 6.29 µM | IC50 (WiDr): 17.7 ± 8.39 µM | IC50 (SW480): 0.43 ± 0.13 µM

ANXA5 siRNA: siRNA GUACAUGACUAUAUCAGGAtt (life technologies, s1392), SEQ ID NO: 2 (GUACAUGACUAUAUCAGGATT; chemistry not given here)
sensitivity to oxaliplatin compared to the case where the control siRNA had been introduced [3]: enhanced | sensitivity to oxaliplatin compared to the case where the control siRNA had been introduced [4]: enhanced

C1QBP siRNA: siRNA GGCCUUAUAUGACCACCUAtt (life technologies, s2139), SEQ ID NO: 4 (GGCCUUAUAUGACCACCUATT; chemistry not given here)
sensitivity to oxaliplatin compared to the case where the control siRNA had been introduced [3]: decreased

IPYR siRNA: siRNA GGAAUCAGUUGCAUGAAUAtt (life technologies, s10878), SEQ ID NO: 5 (GGAAUCAGUUGCAUGAAUATT; chemistry not given here)
sensitivity to oxaliplatin compared to the case where the control siRNA had been introduced [1]: enhanced

PHB siRNA: siRNA CGUGGGUACAGAAACCAAUtt (life technologies, s10424), SEQ ID NO: 1 (CGUGGGUACAGAAACCAAUTT; chemistry not given here)
sensitivity to oxaliplatin compared to the case where the control siRNA had been introduced [1]: decreased | sensitivity to oxaliplatin compared to the case where the control siRNA had been introduced ([2]; DLD-1, 150 pmol siRNA per well): decreased | sensitivity to oxaliplatin compared to the case where the control siRNA had been introduced [3]: decreased | sensitivity to oxaliplatin compared to the case where the control siRNA had been introduced [4]: decreased

TALDO siRNA: siRNA UGCUAUUGAUAAACUUUUUtt (life technologies, s13776), SEQ ID NO: 3 (UGCUAUUGAUAAACUUUUUTT; chemistry not given here)
sensitivity to oxaliplatin compared to the case where the control siRNA had been introduced [1]: enhanced | sensitivity to oxaliplatin compared to the case where the control siRNA had been introduced [3]: enhanced | sensitivity to oxaliplatin compared to the case where the control siRNA had been introduced [4]: enhanced
